Values of other authors, collected in the CATMoS acute toxicity set (Mansouri et al. 2021).
Values joined by “and” are separate entries in the source; they are usually repeats but may differ in a detail not shown here. Equal entries are not always repeated.

Test: rat acute oral toxicity
Details: in vivo
For `CC(C)(c1ccc(O)cc1)c1ccc(O)cc1`, the LD50 is listed as 1000 mg/kg.
In the case of `C=C(C)C1CC=C(CO)CC1` (stereo not drawn), the LD50 is listed as 2100 mg/kg.
In the case of `Fc1c(F)c(F)c2[nH]c(C(F)(F)F)nc2c1F`, the LD50 is given as 3.33 mg/kg.
In the case of `CCc1c(C)nc2ccc(Cl)cn2c1=O`, the LD50 is given as 1100 mg/kg.
For `CCC(O)OC(C)(C)C` (stereo not drawn), the LD50 is listed as 2520 mg/kg.
In the case of `CNNC`, the LD50 is given as 100 mg/kg and 257 mg/kg.
In the case of `CN(C)N=Nc1ccc(Br)cc1`, the LD50 is listed as 423 mg/kg.
For `CC1OCN=C(c2ccccc2)S1` (stereo not drawn), the LD50 is listed as 655 mg/kg.
In the case of `C=CCN1CCC23CCCCC2C1Cc1ccc(O)cc13` (stereo not drawn), the LD50 is given as 850 mg/kg.
In the case of `CCOC(C1=NCC(OC)CN1)c1ccccc1` (stereo not drawn), the LD50 is given as 875 mg/kg.
In the case of `CCC(=O)Nc1ccc2nc(C(F)(F)F)[nH]c2c1`, the LD50 is given as 8.92 mg/kg.
For `CC(C)N1C(=O)N(c2ccccc2)CSC1=NC(C)(C)C`, the LD50 is given as 2200 mg/kg.
In the case of `C=C(OP(=O)(OC)OC)P(=O)(OC)OC`, the LD50 is given as 287 mg/kg.
In the case of `C=CC(C)(O)CC` (stereo not drawn), the LD50 is listed as 700 mg/kg.
In the case of `COc1cc(C)c2[nH]c(=O)sc2c1`, the LD50 is given as 7580 mg/kg.
For `Clc1ccc(Cn2c(CN3CCCC3)nc3ccccc32)cc1`, the LD50 is given as 1950 mg/kg.
For `CC(=O)c1cccc([N+](=O)[O-])c1`, the LD50 is listed as 3250 mg/kg.
For `Clc1cc2c(cc1Cl)Oc1c(cc(Cl)c(Cl)c1Cl)O2`, the LD50 is given as 0.206 mg/kg.
In the case of `C=CCNc1nc(NCC=C)nc(N(CCCCCCN(c2nc(NCC=C)nc(NCC=C)n2)C2CC(C)(C)NC(C)(C)C2)C2CC(C)(C)NC(C)(C)C2)n1`, the LD50 is given as 4010 mg/kg.
In the case of `CC1CCC=C2N(C)C=C(C(=N)O)C(=O)N21` (stereo not drawn), the LD50 is listed as 750 mg/kg.
For `O=C(O)CCC(=O)OCC1COC(C(Cl)(Cl)Cl)O1` (stereo not drawn), the LD50 is listed as 3400 mg/kg.
For `CC(C)OC(Cl)=C(Cl)C(Cl)=C(Cl)Cl`, the LD50 is listed as 1210 mg/kg.
For `CCCCCCc1ccc(C)cc1O`, the LD50 is listed as 2300 mg/kg.
For `CCN(CC)CC#N`, the LD50 is given as 160 mg/kg.
For `c1cc2c(c(NC3=NCCN3)c1)CCC2`, the LD50 is given as 481 mg/kg.
For `c1ccc([C@H]2CN3CCSC3=N2)cc1`, the LD50 is listed as 480 mg/kg.
For `OCCC1CCCCC1`, the LD50 is listed as 940 mg/kg.
For `CCOCC(C)O` (stereo not drawn), the LD50 is listed as 4400 mg/kg.
In the case of `O=NN1CCCCCCC1`, the LD50 is given as 283 mg/kg.
In the case of `CCCC1(CC(=O)O)OCCc2c1[nH]c1ccccc21` (stereo not drawn), the LD50 is given as 1420 mg/kg.
For `COC(=O)Nc1nc2ccccc2n1C(=O)NCCCCCC#N`, the LD50 is listed as 2500 mg/kg.
In the case of `CC(C)[N+](C)(CCOC(=O)C1c2ccccc2Oc2ccccc21)C(C)C`, the LD50 is listed as 370 mg/kg.
In the case of `O=C(O)COc1ccc2ccccc2c1`, the LD50 is given as 600 mg/kg.
In the case of `CC(CN1CCN(CCOCCO)CC1)CN1c2ccccc2Sc2ccc(Cl)cc21` (stereo not drawn), the LD50 is listed as 400 mg/kg.
In the case of `CC(C)CCCCCCCCCCO`, the LD50 is listed as 17000 mg/kg.
In the case of `CCCC=C(CC)[N+](=O)[O-]`, the LD50 is listed as 620 mg/kg.
In the case of `CC(C)N(N=O)C(C)C`, the LD50 is given as 850 mg/kg.
For `CC(CC(C)(C)O)OCCC#N` (stereo not drawn), the LD50 is given as 3200 mg/kg.
For `CC1(COCCOCC2(C)CO2)CO1` (stereo not drawn), the LD50 is listed as 7460 mg/kg.
In the case of `CCOC(=O)c1nocc1C(=O)c1ccccc1`, the LD50 is listed as 1000 mg/kg.
For `NCC(c1cccs1)N1CCCCC1` (stereo not drawn), the LD50 is given as 1480 mg/kg.
In the case of `CC(=O)OC1CCCCC1C(C)(C)C` (stereo not drawn), the LD50 is given as 4600 mg/kg.
For `COc1c(F)c(F)c2[nH]c(C(F)(F)F)nc2c1F`, the LD50 is listed as 2.89 mg/kg.
For `CNC(=O)Oc1ccc(C)c(C)c1`, the LD50 is given as 290 mg/kg.
For `CCCCCCOCC(O)CO` (stereo not drawn), the LD50 is listed as 2500 mg/kg.
For `Cc1c(C(=O)NCCO)[n+]([O-])c2ccccc2[n+]1[O-]`, the LD50 is given as 1720 mg/kg.
For `C[C@H](CCc1ccccc1)NC[C@H](O)c1ccc(O)c(C(N)=O)c1`, the LD50 is given as 1030 mg/kg.
For `CCc1ccc(C)nc1`, the LD50 is listed as 368 mg/kg.
In the case of `Cc1onc(-c2c(Cl)cccc2Cl)c1C(=O)N[C@@H]1C(=O)N2[C@@H]1SC(C)(C)[C@@H]2C(=O)O`, the LD50 is given as 3580 mg/kg.
For `CC(=O)Oc1ccc(C)cc1`, the LD50 is given as 1900 mg/kg.
In the case of `C=CC(=O)OCC[N+](C)(C)C`, the LD50 is given as 500 mg/kg.
For `O=C1NCCN1/N=C/c1ccc([N+](=O)[O-])o1`, the LD50 is given as 1680 mg/kg.
In the case of `CC(C)OCCCO`, the LD50 is listed as 4000 mg/kg.
In the case of `CCCCCCCCCCCCOC(CBr)c1ccc(C(C)C)cc1` (stereo not drawn), the LD50 is given as 250 mg/kg.
In the case of `CC(CN1c2ccccc2Sc2ccc(S(=O)(=O)N(C)C)cc21)N(C)C` (stereo not drawn), the LD50 is given as 1320 mg/kg.
In the case of `COC(=O)C1=C(C)NC(C)=C(C(=O)OCCN2CCN(C(c3ccccc3)c3ccccc3)CC2)C1c1cccc([N+](=O)[O-])c1` (stereo not drawn), the LD50 is given as 156 mg/kg.
In the case of `Cc1c(Cl)ccc(C(C)c2ccccc2)c1C` (stereo not drawn), the LD50 is given as 2130 mg/kg.
For `CCC(C)c1ccc(OC(=O)NC)cc1` (stereo not drawn), the LD50 is given as 44 mg/kg.
In the case of `CC(C)N=C1SC(=NOC(=O)N(C)SC(Cl)(Cl)Cl)C(C)(C)S1`, the LD50 is listed as 226 mg/kg.
In the case of `O=C1OCCO1`, the LD50 is listed as 10000 mg/kg.
For `Nc1ccc2cc(S(=O)(=O)O)ccc2c1CS(=O)(=O)O`, the LD50 is listed as 9200 mg/kg.
In the case of `c1ccc(P(c2ccccc2)c2ccccc2)cc1`, the LD50 is given as 700 mg/kg.
In the case of `CCOC(N)=C1Sc2ccccc2C1=O`, the LD50 is given as 4000 mg/kg.
In the case of `CCNC(=S)NCC`, the LD50 is listed as 316 mg/kg.
In the case of `Nc1ccc(O)c2c1C(=O)c1c(O)cc(-c3ccc(O)cc3)c(N)c1C2=O`, the LD50 is listed as 6380 mg/kg.
For `O=C(NP(=O)(N1CC1)N1CC1)c1cc(I)ccc1I`, the LD50 is listed as 500 mg/kg.
For `FC1(F)CC(C2CC3(Cl)C(Cl)=C(Cl)C2(Cl)C3(Cl)Cl)C1(F)F` (stereo not drawn), the LD50 is given as 550 mg/kg.
For `CCCCOC(=O)c1ccccc1Nc1cccc(C(F)(F)F)c1`, the LD50 is given as 510 mg/kg.
For `SCCc1cnccn1`, the LD50 is given as 158 mg/kg.
In the case of `O=C(O)C(Cl)CCl` (stereo not drawn), the LD50 is listed as 289 mg/kg.
For `Brc1ccccc1`, the LD50 is given as 2380 mg/kg.
In the case of `C=C(Cl)c1ccc([N+](=O)[O-])cc1`, the LD50 is given as 710 mg/kg.
In the case of `CCCCC(CC)COCCC#N` (stereo not drawn), the LD50 is given as 4920 mg/kg.
In the case of `CCOC(C)=O`, the LD50 is given as 5620 mg/kg.
For `COCOC`, the LD50 is listed as 6420 mg/kg.
For `c1ccc(C(OCCN2CCOCC2)c2ccccc2)cc1`, the LD50 is listed as 916 mg/kg.
For `Clc1cccc(SCc2nn[nH]n2)c1`, the LD50 is listed as 2200 mg/kg.
In the case of `CCCCC(CC)COC(N)=O` (stereo not drawn), the LD50 is listed as 3150 mg/kg.
In the case of `NCCNc1ccc(N)cc1`, the LD50 is listed as 190 mg/kg.
For `CNC(=O)c1cc(Cl)ccn1`, the LD50 is given as 500 mg/kg.
For `C=CCNP(=O)(OC=C(Cl)Cl)OC1CCCCC1` (stereo not drawn), the LD50 is listed as 100 mg/kg.
For `CCCCCCCCc1ccc(C)cc1O`, the LD50 is given as 4000 mg/kg.
In the case of `NC(Cl)c1nc(Cl)c(Cl)c(Cl)c1Cl` (stereo not drawn), the LD50 is listed as 1190 mg/kg.
In the case of `Cc1c(CC(=O)O)c2ccccc2n1C(=O)c1ccccc1`, the LD50 is given as 362 mg/kg.
For `COC(=O)C1=C(C)NC(C)=C(C(=O)OCC(C)=O)C1c1ccccc1[N+](=O)[O-]` (stereo not drawn), the LD50 is given as 1460 mg/kg.
In the case of `OCCN1CCN(CCCN2c3ccccc3Sc3ccc(Cl)cc32)CC1`, the LD50 is listed as 318 mg/kg and 210 mg/kg.
For `FC(F)(F)c1nc2c(Cl)cc(Cl)c(Cl)c2[nH]1`, the LD50 is listed as 6.33 mg/kg.
In the case of `COP(=O)(Oc1ccc([N+](=O)[O-])c(C)c1)SC` (stereo not drawn), the LD50 is listed as 315 mg/kg.
For `CCCc1ccc2c(c1)OCO2`, the LD50 is listed as 2260 mg/kg.
In the case of `CCOC(=S)C=Cc1cc(OC)c(OC)c(OC)c1`, the LD50 is listed as 1000 mg/kg.
In the case of `CCO[Si](CS)(OCC)OCC`, the LD50 is listed as 2550 mg/kg.
In the case of `CC12CCC(CC1=O)C2(C)C=O` (stereo not drawn), the LD50 is listed as 3100 mg/kg.
In the case of `CC1=NN(C(=N)N=C(N)N)C(C)(C)C1`, the LD50 is listed as 4090 mg/kg.
In the case of `CC(OCCCl)OCCCl`, the LD50 is listed as 310 mg/kg.
For `c1ccc(Oc2nncc3ccccc23)cc1`, the LD50 is listed as 1000 mg/kg.
In the case of `CCOC(OCC)OCC`, the LD50 is listed as 7060 mg/kg.
For `O=[N+]([O-])c1ccc(O)c(Cl)c1`, the LD50 is listed as 900 mg/kg.
For `CN1CCCN(C(c2ccccc2)c2ccc(Cl)cc2)CC1` (stereo not drawn), the LD50 is given as 490 mg/kg.
In the case of `CN`, the LD50 is given as 1600 mg/kg.
For `O=C1OCc2c(Cl)c(Cl)c(Cl)c(Cl)c21`, the LD50 is given as 20000 mg/kg.
For `COc1ccc(Nc2ccc(OC)cc2)cc1`, the LD50 is listed as 2470 mg/kg.
For `CC/C=C1/OC(=O)c2ccccc21`, the LD50 is listed as 1650 mg/kg.
For `O=C1NCC2(CCN(CCc3ccccc3)CC2)O1`, the LD50 is given as 980 mg/kg and 437 mg/kg.
In the case of `C=CC(=C)CCCC(C)(C)OC(C)=O`, the LD50 is listed as 6300 mg/kg.
For `C1N2CN3CN1CN(C2)C3`, the LD50 is given as 9200 mg/kg.
For `c1ccc2c(c1)ncc1ncsc12`, the LD50 is given as 350 mg/kg and 290 mg/kg.
In the case of `COc1cc(OC)cc(OCC(O)CO)c1` (stereo not drawn), the LD50 is listed as 2100 mg/kg.
In the case of `c1ccc(N2CCOCC2)cc1`, the LD50 is given as 930 mg/kg.
In the case of `C/C=N/N(C)C=O`, the LD50 is given as 320 mg/kg.
In the case of `Clc1cc(Cl)cc(C2(CC(Cl)(Cl)Cl)CO2)c1` (stereo not drawn), the LD50 is listed as 1500 mg/kg.
In the case of `CCCCCCc1ccc(O)cc1O`, the LD50 is listed as 550 mg/kg.
In the case of `NCCCOCCOCCO`, the LD50 is listed as 6500 mg/kg.
For `CC12CCC3c4ccc(O)cc4CCC3C1CC[C@@H]2OC(=O)COC(=O)CCCc1ccc(N(CCCl)CCCl)cc1` (stereo partly drawn), the LD50 is given as 682 mg/kg.
